Values of other authors, collected in patent publication US8309122B2 (Endo Pharmaceuticals Inc., priority 2001, dated 2012).

Settings: metabolized principally in the liver

CN1CC[C@]23c4c5ccc(O)c4O[C@H]2C(=O)CC[C@@]3(O)[C@H]1C5.Cl [Oxymorphone, 14-hydroxydihydromorphinone hydrochloride]
oral bioavailability: about 10%
